Reference: patent publication US10113155B2, “Steviol glycosyltransferase and gene encoding same” (SUNTORY HOLDINGS LIMITED, priority 2012, dated 2018)

B1: UGT73E1: reported stevia glycosyltransferase, 98% identical to UGT73E1 homologous protein 1 (protein, UniProt Q6VAA9 1-495, looked up)
UDP-glycosyltransferase 73E1: MSPKMVAPPTNLHFVLFPLMAQGHLVPMVDIARILAQRGATVTIITTPYHANRVRPVISRAIATNLKIQLLELQLRSTEAGLPEGCESFDQLPSFEYWKNISTAIDLLQQPAEDLLRELSPPPDCIISDFLFPWTTDVARRLNIPRLVFNGPGCFYLLCIHVAITSNILGENEPVSSNTERVVLPGLPDRIEVTKLQIVGSSRPANVDEMGSWLRAVEAEKASFGIVVNTFEELEPEYVEEYKTVKDKKMWCIGPVSLCNKTGPDLAERGNKAAITEHNCLKWLDERKLGSVLYVCLGSLARISAAQAIELGLGLESINRPFIWCVRNETDELKTWFLDGFEERVRDRGLIVHGWAPQVLILSHPTIGGFLTHCGWNSTIESITAGVPMITWPFFADQFLNEAFIVEVLKIGVRIGVERACLFGEEDKVGVLVKKEDVKKAVECLMDEDEDGDQRRKRVIELAKMAKIAMAEGGSSYENVSSLIRDVTETVRAPH

What was measured:
[1] = biological target: T1, UGT73E1 homologous protein 1 (Stevia rebaudiana, UniProt Q6VAA9); test: Enzyme activity of UGT73E1 homologous protein 1: glucosylation of sugar acceptor substrates, LC-MS analysis; type: biochemical; conditions: for products found in the reaction solution with UGT73E1 homologous protein 1: 2 mM UDP-glucose, 0.1 mM sugar acceptor substrate, potassium phosphate buffer pH 7.0, 30° C., 1 hour
T1 construct: designed to carry the open reading frame of the UGT73E1 homologous protein 1 gene in frame with a His tag; made in house; host or cells: E. coli BL21(DE3)
T1 sequence (Q6VAA9 whole entry H50D/D106H/L131W/P152K/L157P/I160M/V199L/A305T/L422S): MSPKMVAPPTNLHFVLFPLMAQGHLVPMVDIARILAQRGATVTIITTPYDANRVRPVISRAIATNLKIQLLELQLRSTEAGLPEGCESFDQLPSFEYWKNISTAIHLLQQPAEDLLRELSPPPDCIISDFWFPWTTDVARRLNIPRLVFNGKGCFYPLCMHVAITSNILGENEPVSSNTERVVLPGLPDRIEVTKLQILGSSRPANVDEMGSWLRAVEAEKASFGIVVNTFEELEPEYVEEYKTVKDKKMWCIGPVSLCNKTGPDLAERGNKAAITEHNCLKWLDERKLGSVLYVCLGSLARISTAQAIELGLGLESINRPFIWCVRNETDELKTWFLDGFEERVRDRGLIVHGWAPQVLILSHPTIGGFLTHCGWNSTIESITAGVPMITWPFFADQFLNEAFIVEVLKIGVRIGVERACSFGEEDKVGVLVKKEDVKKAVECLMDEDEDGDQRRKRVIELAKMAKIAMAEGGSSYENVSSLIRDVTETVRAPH
Method: Standard enzyme reaction conditions are as follows. A reaction solution (2 mM UDP-glucose, 0.1 mM sugar acceptor substrate (steviol), 100 mM potassium phosphate buffer (pH 7.0), 25 μl purified UGT73E1 homologous protein 1 enzyme solution) was prepared in a volume of 50 μl with distilled water and reacted at 30° C. for 1 hour. The enzyme reaction solution (5 μl) was analyzed by LC-MS under the following conditions.
Column: Waters Sunfire C18 3.5 um (2.0 mm I.D.×20 mm)
Mobile phase: A: MilliQ Water (+0.05% formic acid), B: MeCN
Gradient: linear concentration gradient of B from 15% to 55% over 20 minutes
Flow rate: 0.2 ml per minute

[2] = reported in previous studies (Non-patent Document 2); cited from earlier work

Molecule	products found in the reaction solution with UGT73E1 homologous protein 1 [1]	stevioside peak in the reaction solution with UGT73E1 homologous protein 1 ([1]; substrate reacted with UGT73E1 homologous protein 1)	glycosylation activity on steviol glycosides [2]
C=C1C[C@@]23CC[C@H]4[C@@](C)(CCC[C@@]4(C)C(=O)O)[C@@H]2CC[C@]1(O)C3 (single isomer, unassigned) [steviol]	four types of products were newly found		
C=C1C[C@@]23CC[C@H]4[C@@](C)(CCC[C@@]4(C)C(=O)O[C@@H]4O[C@H](CO)[C@@H](O)[C@H](O)[C@H]4O)[C@@H]2CC[C@]1(O[C@@H]1O[C@H](CO)[C@@H](O)[C@H](O)[C@H]1O)C3 [rubusoside]	Compound Z which appears to be a triglucoside of steviol was newly generated	no significant stevioside peak can be found	
C=C1C[C@@]23CC[C@H]4[C@@](C)(CCC[C@@]4(C)C(=O)O)[C@@H]2CC[C@]1(O[C@@H]1O[C@H](CO)[C@@H](O)[C@H](O)[C@H]1O[C@@H]1O[C@H](CO)[C@@H](O)[C@H](O)[C@H]1O)C3 [steviolbioside]	a product which appears to be stevioside (peak F) was also detected		
C=C1C[C@@]23CC[C@H]4[C@@](C)(CCC[C@@]4(C)C(=O)O)[C@@H]2CC[C@]1(O[C@@H]1O[C@H](CO)[C@@H](O)[C@H](O)[C@H]1O)C3 [steviolmonoside]	two peaks (peak E and peak F) were newly obtained		
B1			no glycosylation activity on steviol glycosides
